Results from patent US20250353891A1 (MEDIMMUNE LIMITED, priority 2022, published 2025).
Starred links: 1 amine or outer side, 2 acyl side, 3 side chain; linkers in the order of their positions; H or OH if unused. Non-standard residues stand in square brackets, D forms with d. Residues, ends and D or L forms follow the SMILES beside them. Groups on a side chain read outwards from the residue. *: point of attachment. C18 diacid = O=C(O)CCCCCCCCCCCCCCCCC(=O)*; γGlu = O=C(O)[C@H](CCC(=O)[*:2])N[*:1]; αMeF = C[C@](N)(Cc1ccccc1)C(=O)O; AEEA = NCCOCCOCC(=O)O; Aib = CC(C)(N)C(=O)O

Assays:
[1] = molecular target: human glucagon receptor (hGCGR) (Homo sapiens, UniProt P47871); assay: cAMP production (HTRF) in CHO cells expressing hGCGR; type: cell-based; parameters: expressed in transfected cells; settings: Table 6, peptides modified at position 17; cAMP in CHO hGCGR cells; geometric mean; read-out: hGluc-R EC50
Procedure, shortened: (§1)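 Cells were resuspended in assay buffer at batch-optimized density, typically 1×10^5 cells/mL for hGLP-1R and 2×10^5 cells/mL for hGCGR. After 30 min incubation at room temperature with compound, cAMP was measured by two-step HTRF. EC50 values came from 4-parameter logistic fits of % Delta F.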

[2] = molecular target: human GLP-1 receptor (hGLP-1R) (Homo sapiens, UniProt P43220); assay: cAMP production (HTRF) in CHO cells expressing hGLP-1R; type: cell-based; parameters: expressed in transfected cells; settings: for EC50: Table 6, peptides modified at position 17, cAMP in CHO hGLP-1R cells, geometric mean, read-out: hGLP-1R EC50; for % Relative Potency Ratio: Table 6, % GLP-1R activity relative to GLP-1 / % GlucR activity relative to glucagon
Procedure, shortened: as §1

Chain of human GLP-1 receptor (hGLP-1R) (P43220 24-463): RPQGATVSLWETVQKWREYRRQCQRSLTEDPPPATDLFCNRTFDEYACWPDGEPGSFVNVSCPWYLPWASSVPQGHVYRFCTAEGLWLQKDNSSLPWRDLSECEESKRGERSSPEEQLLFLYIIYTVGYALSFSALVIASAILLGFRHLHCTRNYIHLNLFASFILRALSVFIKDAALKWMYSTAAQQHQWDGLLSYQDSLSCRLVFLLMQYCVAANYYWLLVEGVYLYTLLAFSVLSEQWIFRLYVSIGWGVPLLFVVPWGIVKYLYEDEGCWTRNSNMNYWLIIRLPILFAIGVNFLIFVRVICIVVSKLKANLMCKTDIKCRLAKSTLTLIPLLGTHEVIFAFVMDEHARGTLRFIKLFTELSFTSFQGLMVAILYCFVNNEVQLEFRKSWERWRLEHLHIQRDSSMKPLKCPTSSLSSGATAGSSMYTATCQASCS
Chain of human glucagon receptor (hGCGR) (P47871 26-477): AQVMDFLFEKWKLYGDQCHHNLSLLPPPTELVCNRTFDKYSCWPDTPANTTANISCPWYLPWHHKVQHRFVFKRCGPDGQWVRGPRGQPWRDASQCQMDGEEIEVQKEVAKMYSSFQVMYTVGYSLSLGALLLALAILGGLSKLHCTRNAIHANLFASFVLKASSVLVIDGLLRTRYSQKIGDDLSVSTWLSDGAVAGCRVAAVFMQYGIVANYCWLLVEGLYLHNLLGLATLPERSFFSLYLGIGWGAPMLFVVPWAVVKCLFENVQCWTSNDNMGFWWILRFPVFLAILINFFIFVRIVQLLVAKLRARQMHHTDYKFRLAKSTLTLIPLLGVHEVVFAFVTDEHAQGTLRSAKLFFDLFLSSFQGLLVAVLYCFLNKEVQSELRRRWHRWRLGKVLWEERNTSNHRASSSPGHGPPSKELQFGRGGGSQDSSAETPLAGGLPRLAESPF

EC50 [1]	EC50 [2]	% Relative Potency Ratio [2]	SMILES
0.184 nM	0.104 nM	3.5	CC(C)C[C@H](NC(=O)[C@H](Cc1c[nH]c2ccccc12)NC(=O)[C@H](CCCNC(=N)N)NC(=O)[C@@H](NC(=O)[C@H](Cc1ccccc1)NC(=O)[C@H](CC(=O)O)NC(=O)[C@H](CCC(N)=O)NC(=O)[C@H](C)NC(=O)[C@H](CCCNC(=N)N)NC(=O)[C@H](CCCCNC(=O)CC[C@H](NC(=O)CC[C@H](NC(=O)COCCOCCNC(=O)COCCOCCNC(=O)CC[C@H](NC(=O)CC[C@H](NC(=O)CCCCCCCCCCCCCCCCC(=O)O)C(=O)O)C(=O)O)C(=O)O)C(=O)O)NC(=O)[C@H](CO)NC(=O)[C@H](CC(=O)O)NC(=O)[C@H](CC(C)C)NC(=O)[C@](C)(Cc1ccccc1)NC(=O)[C@H](CCCCN)NC(=O)[C@H](CO)NC(=O)[C@@H](NC(=O)[C@H](CC(=O)O)NC(=O)[C@H](CO)NC(=O)[C@@H](NC(=O)[C@H](Cc1ccccc1)NC(=O)[C@@H](NC(=O)CNC(=O)[C@H](CCC(N)=O)NC(=O)C(C)(C)NC(=O)[C@@H](N)Cc1c[nH]cn1)[C@@H](C)O)[C@@H](C)O)C(C)C)C(C)C)C(=O)N[C@@H](CC(C)C)C(=O)N[C@@H](CCC(=O)O)C(=O)NC(C)(C)C(=O)NCC(=O)O [Peptide 138] (H-H[Aib]QGTFTSDVSK[αMeF]LDSK([γGlu-γGlu-AEEA-AEEA-γGlu-γGlu-C18 diacid])RAQDFVRWLLE[Aib]G-OH; N-terminus assumed)
0.984 nM	0.63 nM	3.1	CC(C)C[C@H](NC(=O)[C@H](Cc1c[nH]c2ccccc12)NC(=O)[C@H](CCCNC(=N)N)NC(=O)[C@@H](NC(=O)[C@H](Cc1ccccc1)NC(=O)[C@H](CC(=O)O)NC(=O)[C@H](CCC(N)=O)NC(=O)[C@H](C)NC(=O)[C@H](CCCNC(=N)N)NC(=O)[C@H](CCCCNC(=O)CC[C@H](NC(=O)CC[C@H](NC(=O)COCCOCCNC(=O)COCCOCCNC(=O)CC[C@H](NC(=O)CC[C@H](NC(=O)CCCCCCCCCCCCCCCCCCC(=O)O)C(=O)O)C(=O)O)C(=O)O)C(=O)O)NC(=O)[C@H](CO)NC(=O)[C@H](CC(=O)O)NC(=O)[C@H](CC(C)C)NC(=O)[C@](C)(Cc1ccccc1)NC(=O)[C@H](CCCCN)NC(=O)[C@H](CO)NC(=O)[C@@H](NC(=O)[C@H](CC(=O)O)NC(=O)[C@H](CO)NC(=O)[C@@H](NC(=O)[C@H](Cc1ccccc1)NC(=O)[C@@H](NC(=O)CNC(=O)[C@H](CCC(N)=O)NC(=O)C(C)(C)NC(=O)[C@@H](N)Cc1c[nH]cn1)[C@@H](C)O)[C@@H](C)O)C(C)C)C(C)C)C(=O)N[C@@H](CC(C)C)C(=O)N[C@@H](CCC(=O)O)C(=O)NC(C)(C)C(=O)NCC(=O)O [Peptide 139]
0.392 nM	0.264 nM	2.9	CC(C)C[C@H](NC(=O)[C@H](Cc1c[nH]c2ccccc12)NC(=O)[C@H](C)NC(=O)[C@@H](NC(=O)[C@H](Cc1ccccc1)NC(=O)[C@H](CC(=O)O)NC(=O)[C@H](CCC(N)=O)NC(=O)[C@H](C)NC(=O)[C@H](CCCNC(=N)N)NC(=O)[C@H](CCCCNC(=O)COCCOCCNC(=O)COCCOCCNC(=O)CC[C@H](NC(=O)CCCCCCCCCCCCCCCCC(=O)O)C(=O)O)NC(=O)[C@H](CO)NC(=O)[C@H](CC(=O)O)NC(=O)[C@H](CC(C)C)NC(=O)[C@](C)(Cc1ccccc1)NC(=O)[C@H](CCCCN)NC(=O)[C@H](CO)NC(=O)[C@@H](NC(=O)[C@H](CC(=O)O)NC(=O)[C@H](CO)NC(=O)[C@@H](NC(=O)[C@H](Cc1ccccc1)NC(=O)[C@@H](NC(=O)CNC(=O)[C@H](CCC(N)=O)NC(=O)C(C)(C)NC(=O)[C@@H](N)Cc1c[nH]cn1)[C@@H](C)O)[C@@H](C)O)C(C)C)C(C)C)C(=O)N[C@@H](CC(C)C)C(=O)N[C@@H](CCC(=O)O)C(=O)NC(C)(C)C(=O)NCC(=O)O [Peptide 141] (H-H[Aib]QGTFTSDVSK[αMeF]LDSK([AEEA-AEEA-γGlu-C18 diacid])RAQDFVAWLLE[Aib]G-OH; N-terminus assumed)
0.108 nM	0.0594 nM	3.6	CC(C)C[C@H](NC(=O)[C@H](Cc1c[nH]c2ccccc12)NC(=O)[C@H](C)NC(=O)[C@@H](NC(=O)[C@H](Cc1ccccc1)NC(=O)[C@H](CC(=O)O)NC(=O)[C@H](CCCNC(=N)N)NC(=O)[C@H](C)NC(=O)[C@H](CCCNC(=N)N)NC(=O)[C@H](CCCCNC(=O)COCCOCCNC(=O)COCCOCCNC(=O)CC[C@H](NC(=O)CCCCCCCCCCCCCCCCC(=O)O)C(=O)O)NC(=O)[C@H](CO)NC(=O)[C@H](CC(=O)O)NC(=O)[C@H](CC(C)C)NC(=O)[C@](C)(Cc1ccccc1)NC(=O)[C@H](CCCCN)NC(=O)[C@H](CO)NC(=O)[C@@H](NC(=O)[C@H](CC(=O)O)NC(=O)[C@H](CO)NC(=O)[C@@H](NC(=O)[C@H](Cc1ccccc1)NC(=O)[C@@H](NC(=O)CNC(=O)[C@H](CCC(N)=O)NC(=O)C(C)(C)NC(=O)[C@@H](N)Cc1c[nH]cn1)[C@@H](C)O)[C@@H](C)O)C(C)C)C(C)C)C(=O)N[C@@H](CC(C)C)C(=O)N[C@@H](CCC(=O)O)C(=O)NC(C)(C)C(=O)NCC(=O)O [Peptide 142] (H-H[Aib]QGTFTSDVSK[αMeF]LDSK([AEEA-AEEA-γGlu-C18 diacid])RARDFVAWLLE[Aib]G-OH; N-terminus assumed)
0.0326 nM	0.0191 nM	3.4	CC(C)C[C@H](NC(=O)[C@H](Cc1c[nH]c2ccccc12)NC(=O)[C@H](CCC(N)=O)NC(=O)[C@@H](NC(=O)[C@H](Cc1ccccc1)NC(=O)[C@H](CC(=O)O)NC(=O)[C@H](CCCNC(=N)N)NC(=O)[C@H](C)NC(=O)[C@H](CCCNC(=N)N)NC(=O)[C@H](CCCCNC(=O)COCCOCCNC(=O)COCCOCCNC(=O)CC[C@H](NC(=O)CCCCCCCCCCCCCCCCC(=O)O)C(=O)O)NC(=O)[C@H](CO)NC(=O)[C@H](CC(=O)O)NC(=O)[C@H](CC(C)C)NC(=O)[C@](C)(Cc1ccccc1)NC(=O)[C@H](CCCCN)NC(=O)[C@H](CO)NC(=O)[C@@H](NC(=O)[C@H](CC(=O)O)NC(=O)[C@H](CO)NC(=O)[C@@H](NC(=O)[C@H](Cc1ccccc1)NC(=O)[C@@H](NC(=O)CNC(=O)[C@H](CCC(N)=O)NC(=O)C(C)(C)NC(=O)[C@@H](N)Cc1c[nH]cn1)[C@@H](C)O)[C@@H](C)O)C(C)C)C(C)C)C(=O)N[C@@H](CC(C)C)C(=O)N[C@@H](CCC(=O)O)C(=O)NC(C)(C)C(=O)NCC(=O)O [Peptide 143] (H-H[Aib]QGTFTSDVSK[αMeF]LDSK([AEEA-AEEA-γGlu-C18 diacid])RARDFVQWLLE[Aib]G-OH; N-terminus assumed)
4.59 nM	0.0226 nM	401.2	CC[C@H](C)[C@H](NC(=O)CNC(=O)[C@H](CCCNC(=N)N)NC(=O)[C@H](CO)NC(=O)[C@H](C)NC(=O)[C@H](CC(C)C)NC(=O)[C@H](Cc1c[nH]c2ccccc12)NC(=O)[C@H](CCCNC(=N)N)NC(=O)[C@@H](NC(=O)[C@H](Cc1ccccc1)NC(=O)[C@H](CC(=O)O)NC(=O)[C@H](CCC(N)=O)NC(=O)[C@H](C)NC(=O)[C@H](CCCNC(=N)N)NC(=O)[C@H](CCCCNC(=O)COCCOCCNC(=O)COCCOCCNC(=O)CC[C@H](NC(=O)CCCCCCCCCCCCCCCCC(=O)O)C(=O)O)NC(=O)[C@H](CO)NC(=O)[C@H](CC(=O)O)NC(=O)[C@H](CC(C)C)NC(=O)[C@](C)(Cc1ccccc1)NC(=O)[C@H](CCCCN)NC(=O)[C@H](CO)NC(=O)[C@@H](NC(=O)[C@H](CC(=O)O)NC(=O)[C@H](CO)NC(=O)[C@@H](NC(=O)[C@H](Cc1ccccc1)NC(=O)[C@@H](NC(=O)CNC(=O)[C@H](CCC(N)=O)NC(=O)C(C)(C)NC(=O)[C@@H](N)Cc1c[nH]cn1)[C@@H](C)O)[C@@H](C)O)C(C)C)C(C)C)C(=O)O [Peptide 145] (H-H[Aib]QGTFTSDVSK[αMeF]LDSK([AEEA-AEEA-γGlu-C18 diacid])RAQDFVRWLASRGI-OH)
1.63 nM	0.0246 nM	131.3	CC(C)C[C@H](NC(=O)[C@H](Cc1c[nH]c2ccccc12)NC(=O)[C@H](CCCNC(=N)N)NC(=O)[C@@H](NC(=O)[C@H](Cc1ccccc1)NC(=O)[C@H](CC(=O)O)NC(=O)[C@H](CCC(N)=O)NC(=O)[C@H](C)NC(=O)[C@H](CCCNC(=N)N)NC(=O)[C@H](CCCCNC(=O)COCCOCCNC(=O)COCCOCCNC(=O)CC[C@H](NC(=O)CCCCCCCCCCCCCCCCC(=O)O)C(=O)O)NC(=O)[C@H](CO)NC(=O)[C@H](CC(=O)O)NC(=O)[C@H](CC(C)C)NC(=O)[C@](C)(Cc1ccccc1)NC(=O)[C@H](CCCCN)NC(=O)[C@H](CO)NC(=O)[C@@H](NC(=O)[C@H](CC(=O)O)NC(=O)[C@H](CO)NC(=O)[C@@H](NC(=O)[C@H](Cc1ccccc1)NC(=O)[C@@H](NC(=O)CNC(=O)[C@H](CCC(N)=O)NC(=O)C(C)(C)NC(=O)[C@@H](N)Cc1c[nH]cn1)[C@@H](C)O)[C@@H](C)O)C(C)C)C(C)C)C(=O)N[C@@H](C)C(=O)N[C@@H](CO)C(=O)N[C@@H](CCCNC(=N)N)C(=O)O [Peptide 146] (H-H[Aib]QGTFTSDVSK[αMeF]LDSK([AEEA-AEEA-γGlu-C18 diacid])RAQDFVRWLASR-OH; N-terminus assumed)
